In article PMC8304783, “Antiadhesive Properties of Imidazolium Ionic Liquids Based on (−)-Menthol Against Candida spp” (International Journal of Molecular Sciences, 2021):

Experiments:
sheep erythroid PMs = assay: Hemolysis assay; type: cell-based; settings: sheep RBCs
Protocol: To examine any possible toxic effect towards animal cells, ILs were tested for their lytic activity on sheep erythroid PMs, in comparison to AMB (Table 3). For this part of study, higher concentrations were selected, corresponding to MFC values of tested fungi (12.5; 25 and 50 µM in case of ILs, and 0.25; 0.5 and 1 µM in case of AMB, Table 1). The compounds were ranked in terms of hemolytic activity as follows: 1a > 1b > 2a. IL with alkoxymethyl chain (2a) produced <5% hemolysis, regardless of the concentration used. Compounds with alkyl substituents (1a and 1b) were more hemolytic in 12.5 than in 25 µM concentrations, and in the highest concentration (50 µM), both compounds produced >10% and >5% hemolysis, respectively.
ILs were tested for hemolytic activity, as described previously. Briefly, 5 mL of fresh sheep blood was centrifuged (2000 rpm, 15 min), washed with PBS and resuspended in PBS to achieve hematocrit level of 50%. Red blood cells (RBCs) were treated with ILs (concentrations = 12.5, 25 and 50 µM) for 2 h at 37 °C. Afterwards, RBCs were centrifuged (2000 rpm, 5 min) and the absorbance of the supernatant was measured at 540 nm (ASYS UVM 340 Biogenet). The percentage of hemolysis was determined in comparison to the hemoglobin absorbance released by a 1% SDS solution (100% hemolysis).

C. albicans = assay: Yeast-to-hyphae transition (FBS-induced hyphae formation); type: cell-based; settings: FBS-induced (10%), ILs 25 µM, 2 h, 37 °C; control 94 ± 0.6%
Protocol: (§1) Fungal adhesion to biomedical surfaces is strongly related to the structure of the cell wall, and the presence of adhesins (Als proteins) on the surface of the cell. In turn, the progression to biofilm formation is dependent on the ability of C. albicans to form hyphae. In conditions similar to those above (ILs conc. = 25 µM), we examined C. albicans cell wall integrity, its ability to form hyphae, and the level of ALS genes expression, encoding Als1 and Als5 adhesins (Figure 3). […] Despite some reduction, the result was not statistically significant (p = 0.12). On the other hand, after the treatment with IL 2a, the expression of ALS1 and ALS5 genes was reduced by 50 or 55%, respectively (Figure 3C). The results were statistically significant in both cases (p = 0.04 for either ALS gene). However, in case of compounds with alkyl substituents (1a and 1b), the reduction of gene expression was to a lesser degree. […] Despite observing a chain-length dependence, the results were not statistically significant (p = 0.07 for both ALS gene after treatment with 1b).
Experiments were performed as described before, with modifications. YPD-grown C. albicans were pelleted, washed with fresh YPD medium and resuspended in YPD medium (OD600 = 0.4). The suspensions were treated with ILs (conc. = 25 µM) and FBS (final conc. = 10%) for 2 h at 37 °C. The samples were observed under the Zeiss Axio Imager A2 microscope equipped with Canon PowerShot G10 camera for assessment of cell morphology. For quantitative estimation, cells of each assay were counted in three independent repetitions determining the percentage of hyphae forming cells.

C. krusei ATCC6258 = assay: Minimal inhibitory and fungicidal concentrations (broth microdilution, CLSI M27-A3 modified); type: cell-based; settings: Pichia kudriavzevii, 28 °C; for MFC: 120 h, replated on YPD agar, 5 days, read-out: Minimal fungicidal concentration (MFC); for MIC90: ≥90% growth inhibition, 48 h, YPD, read-out: Minimal inhibitory concentration (MIC90)
Protocol: (§2) Experiments were performed according to the Clinical and Laboratory Standards Institute (2008), 3rd ed. M27-A3 [51], with modifications described previously. Briefly, MICs were determined by serially diluting ILs in YPD medium in sterile 96-well plates (Sarstedt) and inoculating with fungal suspensions (final OD600 per well = 0.01). After incubation (48 h; 28 °C), the OD600 was measured (ASYS UVM 340 Biogenet). […] Each well was then replated on YPD agar and incubated for 5 days at 28 °C.

C. albicans SC5314 = assay: as above; type: cell-based; settings: Candida albicans, 28 °C; for MFC: 120 h, replated on YPD agar, 5 days, read-out: Minimal fungicidal concentration (MFC); for MIC90: ≥90% growth inhibition, 48 h, YPD, read-out: Minimal inhibitory concentration (MIC90)
Protocol: as §2

C. parapsilosis CBS10947 = assay: as above; type: cell-based; settings: Lodderomyces parapsilosis, 28 °C; for MFC: 120 h, replated on YPD agar, 5 days, read-out: Minimal fungicidal concentration (MFC); for MIC90: ≥90% growth inhibition, 48 h, YPD, read-out: Minimal inhibitory concentration (MIC90)
Protocol: as §2

C. glabrata ATCC90030 = assay: as above; type: cell-based; settings: Nakaseomyces glabratus, 28 °C; for MFC: 120 h, replated on YPD agar, 5 days, read-out: Minimal fungicidal concentration (MFC); for MIC90: ≥90% growth inhibition, 48 h, YPD, read-out: Minimal inhibitory concentration (MIC90)
Protocol: as §2

ALS1 = assay: Real time quantitative PCR, relative gene expression; type: cell-based, C. albicans; settings: ILs 25 µM, 2 h; relative to untreated cells (100%)
Protocol: as §1
(§3) Figure 3 (A) C. albicans calcofluor white staining following a 2 h treatment with 1a,2a,1b ILs (conc. = 25 µM). Control experiment represents untreated calcofluor white-stained cells. Scale bar = 2.5 µm. (B) FBS-induced hyphae formation after 2 h treatment with 1a,2a,1b ILs (conc. = 25 µM). Control condition was C. albicans treated with FBS only. Scale bar = 10 µm. (C) Relative ALS1 and ALS5 gene expression in C. albicans following a 2 h treatment with 1a,2a,1b ILs (conc. = 25 µM). Gene expression levels are reported as means of 2^−∆∆CT values (n = 6) ± SD; normalized to 100% for untreated cells (control). Statistical analyses were performed by comparing expression under treatment with each IL to untreated cells. * p < 0.05.
(§4) YPD-grown C. albicans cells were pelleted, washed with PBS and treated with ILs (conc. = 25 µM) for 2 h at 37 °C. Next, the cells were pelleted, and concentrated (PBS; OD600 = 20). RNA was isolated using the Total RNA Mini Kit (A&A Biotechnology, Gdańsk, Poland). Synthesis of cDNA and calculation of gene expression levels were performed as previously described. The following gene-specific primers were used: ACT1_F (5′-TCCAGCTTTCTACGTTTCCA-3′), ACT1_R (5′-GTCAAGTCTCTACCAGCCAA-3′), ALS1_F (5′-TGTTGGTGTGACTACTTCCT-3′), ALS1_R (5′-TGT ACC ACT GTG TCA AT-3′), ALS5_F (5′-CTCCACTAGTTATGGGGATGT-3′) and ALS5_R (5′-TGAGGGAGAAATATAAGCGTCA-3′).

ALS5 = assay: as above; type: cell-based, C. albicans; settings: ILs 25 µM, 2 h; relative to untreated cells (100%)
Protocol: as §1, §3, §4

[1] = ILs conc. 12.5 µM, 2 h, 37 °C, 1% SDS = 100% hemolysis
[2] = ILs conc. 25 µM, 2 h, 37 °C, 1% SDS = 100% hemolysis
[3] = ILs conc. 50 µM, 2 h, 37 °C, 1% SDS = 100% hemolysis

| Structure (SMILES) | Hemolytic activity (sheep erythroid PMs; [1]) [%] | Hemolytic activity (sheep erythroid PMs; [2]) [%] | Hemolytic activity (sheep erythroid PMs; [3]) [%] | Percentage of cells forming hyphae (C. albicans) [%] | MFC (C. krusei ATCC6258) [µM] | MIC90 (C. krusei ATCC6258) [µM] | MFC (C. albicans SC5314) [µM] | MIC90 (C. albicans SC5314) [µM] | MFC (C. parapsilosis CBS10947) [µM] | MIC90 (C. parapsilosis CBS10947) [µM] | MFC (C. glabrata ATCC90030) [µM] | MIC90 (C. glabrata ATCC90030) [µM] | Reduction of ALS1 gene expression (ALS1) [%] | Reduction of ALS5 gene expression (ALS5) [%] | Hemolytic activity (sheep erythroid PMs; regardless of the concentration used (12.5; 25 and 50 µM)) [%] |
| --- | --- | --- | --- | --- | --- | --- | --- | --- | --- | --- | --- | --- | --- | --- | --- |
| CCCCCCCCCn1cc[n+](CO[C@@H]2C[C@H](C)CC[C@H]2C(C)C)c1 [1a, 1-[(1R,2S,5R)-(−)-menthoxymethyl]-3-nonylimidazolium chloride] | 4.81 ± 0.02 | 1.51 ± 0.53 | 11.56 ± 2.13 | < 1 | 25 | 6.25 | 50 | 12.5 | 50 | 12.5 | 25 | 12.5 | 20 | 10 |  |
| CCCCCCCCCCn1cc[n+](CO[C@@H]2C[C@H](C)CC[C@H]2C(C)C)c1 [1b, 3-decyl-1-[(1R,2S,5R)-(−)-menthoxymethyl]imidazolium chloride] | 2.1 ± 0.36 | 3.01 ± 0.39 | 3.23 ± 0.6 | < 1 | 25 | 25 | 50 | 25 | 25 | 25 | 25 | 25 | 45 | 40 |  |
| CCCCCCCCCOCn1cc[n+](CO[C@@H]2C[C@H](C)CC[C@H]2C(C)C)c1 [2a, 1-(1R,2S,5R)-(−)-menthoxymethyl-3-nonyloxymethylimidazolium chloride] | 4.55 ± 0.82 | 1.78 ± 0.44 | 6.09 ± 0.48 | 78.2 ± 17.2 | 12.5 | 6.25 | 25 | 12.5 | 25 | 12.5 | 12.5 | 12.5 | 50 | 55 | < 5 |
